Like-named read-outs stand apart in the source and are kept apart here.
Assays:
[1] = test system: gingival recession; conditions: patient with gingival recession throughout the mouth
Description: (§1) A patient is diagnosed with gingival recession throughout the mouth.
A patient is diagnosed with gingival recession throughout the mouth. A composition comprising the ACE inhibitor enalapril is directly applied to the tissue of the gum on one side of the mouth while the other side is left untreated.
A patient is diagnosed with gingival recession throughout the mouth. A composition comprising the angiotensin receptor blocker losartan is directly applied to the tissue of the gum on one side of the mouth while the other side is left untreated.
as §1
A patient is diagnosed with gingival recession throughout the mouth. A composition comprising the ACE inhibitor enalapril is administered by injection into the tissue of the gum on one side of the mouth while the other side is left untreated.
A patient is diagnosed with gingival recession throughout the mouth. A composition comprising the angiotensin receptor blocker losartan is administered by injection into the tissue of the gum on one side of the mouth while the other side is left untreated.

[2] = test system: gingival recession; conditions: patient previously successfully treated, after a period of time
Method: A composition comprising the ACE inhibitor enalapril is directly applied to the tissue of the gum on one side of the mouth while the other side is left untreated.
A composition comprising the angiotensin receptor blocker losartan is directly applied to the tissue of the gum on one side of the mouth while the other side is left untreated.
A composition comprising the ACE inhibitor enalapril is administered by injection into the tissue of the gum on one side of the mouth while the other side is left untreated.
A composition comprising the angiotensin receptor blocker losartan is administered by injection into the tissue of the gum on one side of the mouth while the other side is left untreated.

[3] = composition administered by injection into the tissue of the gum on one side
[4] = composition directly applied to the tissue of the gum on one side

SMILES | symptoms of gingival recession, treated side versus untreated side [1, 3] | symptoms of gingival recession, treated side versus untreated side [1, 4] | recurrence of symptoms of gingival recession, treated side versus untreated side [2, 3] | recurrence of symptoms of gingival recession, treated side versus untreated side [2, 4]
CCOC(=O)[C@H](CCc1ccccc1)N[C@@H](C)C(=O)N1CCC[C@H]1C(=O)O [enalapril] | reduced symptoms of gingival recession | reduced symptoms of gingival recession | free of symptoms of gingival recession | free of symptoms of gingival recession
CCCCc1nc(Cl)c(CO)n1Cc1ccc(-c2ccccc2-c2nn[nH]n2)cc1 [losartan] | reduced symptoms of gingival recession | reduced symptoms of gingival recession | free of symptoms of gingival recession | free of symptoms of gingival recession

From patent US20210322397A1, “METHOD TO PREVENT AND TREAT GINGIVAL RECESSION BY CALCIUM CHANNEL BLOCKERS, ANGIOTENSIN CONVERTING ENZYME INHIBITORS, AND ANGIOTENSIN RECEPTOR BLOCKERS” (priority 2018, published 2021)
